According to the Kinase Knowledgebase extract (Sharma et al. 2016):
≈ marks a conversion by molar mass, not a printed value.

The molecules below were run against EGFR (UniProt P00533).
Chain of EGFR (P00533 whole entry, looked up): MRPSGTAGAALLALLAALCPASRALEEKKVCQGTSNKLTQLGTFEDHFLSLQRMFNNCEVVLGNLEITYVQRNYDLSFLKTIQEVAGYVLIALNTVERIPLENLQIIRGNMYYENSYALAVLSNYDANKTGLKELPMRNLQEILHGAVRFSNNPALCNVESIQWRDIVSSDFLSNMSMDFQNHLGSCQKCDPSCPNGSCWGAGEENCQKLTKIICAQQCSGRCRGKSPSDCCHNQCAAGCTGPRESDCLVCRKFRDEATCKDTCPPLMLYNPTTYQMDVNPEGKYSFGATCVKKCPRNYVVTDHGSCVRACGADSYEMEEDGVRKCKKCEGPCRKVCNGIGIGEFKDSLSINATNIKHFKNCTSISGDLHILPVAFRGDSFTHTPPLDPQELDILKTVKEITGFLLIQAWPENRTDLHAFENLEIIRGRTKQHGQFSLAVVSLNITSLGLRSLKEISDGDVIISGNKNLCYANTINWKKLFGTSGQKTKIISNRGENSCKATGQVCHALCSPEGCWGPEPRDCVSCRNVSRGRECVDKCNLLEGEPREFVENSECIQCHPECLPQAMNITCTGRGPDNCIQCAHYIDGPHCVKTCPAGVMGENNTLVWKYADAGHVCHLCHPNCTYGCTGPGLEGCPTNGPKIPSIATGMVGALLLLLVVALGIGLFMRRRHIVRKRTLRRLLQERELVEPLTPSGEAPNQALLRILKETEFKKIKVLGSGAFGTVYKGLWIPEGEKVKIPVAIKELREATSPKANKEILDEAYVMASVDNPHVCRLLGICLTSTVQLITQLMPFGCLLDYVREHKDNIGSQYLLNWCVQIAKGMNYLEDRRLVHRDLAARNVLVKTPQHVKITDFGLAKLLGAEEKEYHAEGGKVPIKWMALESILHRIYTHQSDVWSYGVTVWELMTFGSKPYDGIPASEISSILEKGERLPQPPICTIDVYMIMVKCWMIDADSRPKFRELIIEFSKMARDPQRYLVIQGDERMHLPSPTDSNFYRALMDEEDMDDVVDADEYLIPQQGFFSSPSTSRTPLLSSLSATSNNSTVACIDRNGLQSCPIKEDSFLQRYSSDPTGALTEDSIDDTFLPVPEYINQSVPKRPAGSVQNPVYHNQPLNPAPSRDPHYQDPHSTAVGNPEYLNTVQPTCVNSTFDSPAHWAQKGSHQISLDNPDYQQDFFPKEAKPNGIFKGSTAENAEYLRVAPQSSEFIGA

Structure (SMILES) | IC50
COC(=O)c1cc(Nc2ncnc(Nc3cc(-c4ccco4)n[nH]3)n2)cc(C(=O)OC)c1 | > 4.5 µg/mL
COc1cc(Nc2ncnc(Nc3cccc(CN4CCN(C)CC4)c3)n2)cc(OC)c1OC | > 4.5 µg/mL
COC(=O)c1ccc(-c2cc(Nc3ncnc(Nc4cccc(CC(=O)O)c4)n3)[nH]n2)cc1 | 0.4 to 2.4 µg/mL (≈ 0.898 to 5.39 µM)
COc1cc(Nc2ncnc(-c3ccccc3)n2)cc(OC)c1OC | > 4.5 µg/mL
CN(c1cccc(Cl)c1)c1ncnc(Nc2ccc3c(cnn3C)c2)n1 | < 0.4 µg/mL
COc1cc(Nc2ncnc(-n3c(N)nc4ccccc43)n2)ccc1OCCN1CCOCC1 | > 4.5 µg/mL
COc1cc(Nc2ncnc(-c3cccnc3Nc3ccc4c(c3)CCC4)n2)cc(OC)c1OC | > 4.5 µg/mL
COc1cc(Nc2ncnc(N3CCN(C)CC3)n2)cc(OC)c1OC | > 4.5 µg/mL
COc1ccc(Nc2ncnc(NCCNC(C)=O)n2)cc1OC | > 4.5 µg/mL
COc1cccc(Nc2ncnc(-c3ccccc3)n2)c1 | > 4.5 µg/mL
COc1cc(Nc2ncnc(-n3c(C)nc4ccccc43)n2)cc(OC)c1OC | 2.4 to 3.5 µg/mL (≈ 6.12 to 8.92 µM)
COc1ccc(Nc2ncnc(NCCCN3CCN(C)CC3)n2)cc1OC | > 4.5 µg/mL
COc1cc(Nc2ncnc(Nc3cnc4ccccc4c3)n2)cc(OC)c1OC | 0.4 to 2.4 µg/mL (≈ 0.989 to 5.93 µM)
CC(C)Nc1ncccc1-c1ncnc(Nc2cccc(CC(=O)O)c2)n1 | > 4.5 µg/mL
CCOC(=O)Cc1cn(-c2ncnc(Nc3cc(OC)c(OC)c(OC)c3)n2)c2ccccc12 | > 4.5 µg/mL
COc1cc(Nc2ncnc(-n3c(NC(=O)c4ccccc4)nc4ccccc43)n2)cc(OC)c1OC | > 4.5 µg/mL
OCc1ccc(Nc2ncnc(-c3ccccc3)n2)cc1 | > 4.5 µg/mL
COc1ccc(Nc2ncnc(NCC(=O)c3ccccc3)n2)cc1OC | 2.4 to 3.5 µg/mL (≈ 6.57 to 9.58 µM)
NC(=O)c1ccc(Nc2ncnc(-c3cccnc3NCc3ccccc3)n2)cc1 | 0.4 to 2.4 µg/mL (≈ 1.01 to 6.04 µM)
COc1cc(Nc2ncnc(-n3c(NCc4ccc(C(F)(F)F)cc4)nc4ccccc43)n2)cc(OC)c1OC | > 4.5 µg/mL
COc1cccc(Nc2ncnc(N(C)c3cccc(Cl)c3)n2)c1 | < 0.4 µg/mL
COc1cc(Nc2ncnc(-n3c(NCc4ccc(F)cc4Cl)nc4ccccc43)n2)cc(OC)c1OC | 3.5 to 4.5 µg/mL (≈ 6.53 to 8.4 µM)
COc1cc(Nc2ncnc(-n3c(N)nc4ccccc43)n2)ccc1OCCn1ccnn1 | > 4.5 µg/mL
COc1cc(Nc2ncnc(-n3c(NC(C)C)nc4ccccc43)n2)cc(OC)c1OC | > 4.5 µg/mL
COc1cc(Nc2ncnc(Nc3ncncn3)n2)cc(OC)c1OC | > 4.5 µg/mL
COc1cc(Nc2ncnc(Nc3cc(-c4ccccc4)nn3C)n2)cc(OC)c1OC | 3.5 to 4.5 µg/mL (≈ 8.07 to 10.4 µM)

Structure (SMILES) | IC50
COc1ccc(Nc2ncnc(-n3c(N)nc4ccccc43)n2)cn1 | > 4.5 µg/mL
COc1cc(Nc2ncnc(-n3c(=O)oc4ccccc43)n2)cc(OC)c1OC | 0.4 to 2.4 µg/mL (≈ 1.01 to 6.07 µM)
CN(c1cccc(Cl)c1)c1ncnc(Nc2ccc(Cl)c(Cl)c2)n1 | > 4.5 µg/mL
FC(F)(F)c1ccc(Cl)c(Nc2ncnc(-n3cccc3)n2)c1 | > 4.5 µg/mL
Nc1nc2ccccc2n1-c1ncnc(Nc2cccnc2)n1 | 2.4 to 3.5 µg/mL (≈ 7.89 to 11.5 µM)
COc1cc(NC(=O)Nc2ncnc(Nc3cc(OC)c(OC)c(OC)c3)n2)cc(OC)c1 | > 4.5 µg/mL
COc1ccc(-c2cn[nH]c2Nc2ncnc(Nc3cc(OC)c(OC)c(OC)c3)n2)cc1OC | 3.5 to 4.5 µg/mL (≈ 7.3 to 9.38 µM)
COc1ccc(CNc2ncccc2-c2ncnc(Nc3cc(OC)c(OC)c(OC)c3)n2)cc1 | > 4.5 µg/mL
COc1cc(Nc2ncnc(-n3ccc4c(OC)cccc43)n2)cc(OC)c1OC | > 4.5 µg/mL
CCN1CCCC1CNc1ncnc(Nc2ccc(OC)c(OC)c2)n1 (configuration not stated) | > 4.5 µg/mL
Fc1ccc(CNc2ncnc(Nc3cc(-c4ccco4)n[nH]3)n2)cc1 | 3.5 to 4.5 µg/mL (≈ 9.96 to 12.8 µM)
COc1cc(Nc2ncnc(NC(=O)NCc3ccccc3)n2)cc(OC)c1OC | 0.4 to 2.4 µg/mL (≈ 0.975 to 5.85 µM)
COc1cc(Nc2ncnc(Nc3cccc4cccnc34)n2)cc(OC)c1OC | > 4.5 µg/mL
COc1cc(Nc2ncnc(-c3cccnc3Nc3cccc(C(C)=O)c3)n2)cc(OC)c1OC | > 4.5 µg/mL
Fc1ccc(CNc2ncccc2-c2ncnc(Nc3cccc(Cn4ccnn4)c3)n2)cc1 | 2.4 to 3.5 µg/mL (≈ 5.29 to 7.72 µM)
COc1cc(Nc2ncnc(Nc3ccc(NCc4ccccc4)cc3)n2)cc(OC)c1OC | > 4.5 µg/mL
CN(c1cccc(Cl)c1)c1ncnc(Nc2cc(C(C)(C)C)on2)n1 | > 4.5 µg/mL
Fc1cccc(CNc2nc3ccccc3n2-c2ncnc(Nc3cccc(Cn4ccnn4)c3)n2)c1 | 0.4 to 2.4 µg/mL (≈ 0.812 to 4.87 µM)
COc1cc(Nc2ncnc(-n3c(NCc4ccccc4)nc4ccccc43)n2)cc(OC)c1OC | 2.4 to 3.5 µg/mL (≈ 4.96 to 7.24 µM)
COc1cc(Nc2ncnc(NC(=O)NCCc3ccccc3)n2)cc(OC)c1OC | > 4.5 µg/mL
COc1cc(OC)cc(-c2nnc(Nc3ncnc(Nc4cc(OC)c(OC)c(OC)c4)n3)[nH]2)c1 | > 4.5 µg/mL
COc1cc(Nc2ncnc(-n3c(=O)[nH]c4ccccc43)n2)cc(OCCN2CCOCC2)c1OC | > 4.5 µg/mL
COc1ccc(Nc2ncnc(NCCCOC(C)C)n2)cc1OC | > 4.5 µg/mL
COc1ccc(Nc2ncnc(Nc3cc(-c4ccccc4)n[nH]3)n2)cc1OC | 0.4 to 2.4 µg/mL (≈ 1.03 to 6.16 µM)
COc1cc(Nc2ncnc(N(Cc3ccccc3)c3nc4ccccc4[nH]3)n2)cc(OC)c1OC | 2.4 to 3.5 µg/mL (≈ 4.96 to 7.24 µM)
Cc1ccc(-c2cc(Nc3ncnc(Nc4cc(C)ccc4C)n3)[nH]n2)cc1 | < 0.4 µg/mL
